The source of these data is paper PMC10223877, “Impacts of PEGylation and Glycosylation on the Biological Properties of Host Defense Peptide IDR1018” (Pharmaceutics, 2023).

≈ marks a conversion by molar mass, not a printed value. Ends that are not written are not given here. Peptide text beside a SMILES is read from it. * marks the point of attachment. X1 = CC(=O)N[C@H]1C(*)O[C@H](CO)[C@@H](O)[C@@H]1O; X2 = O=C(CCOCCOCCOCCOCCOCCOCCO)*

In series [1] the test system is A. baumannii 5015. As to the kind of experiment: MIC, liquid broth inhibition assay. It is filed as cell-based. As to conditions: planktonic A. baumannii 5015; MHB, ~1 × 10^6 CFU mL^−1, ~18 h, OD600; modal values of three independent experiments. The protocol:
(§1) The MIC was conducted using the liquid broth inhibition assay as previously described. MHB was used as a medium for bacterial growth, and bacteria (either MRSA SAP0017, P. aeruginosa PA14, E. coli ATTC489 or A. baumannii 5015) were suspended at ∼1 × 10^6 CFU mL^−1. The peptide conjugates were incubated with the bacterial cultures at various concentrations for ~18 h prior determination of bacterial growth optical density at 600 nm (OD600). The MIC was defined as the lowest concentration that led to no growth in the wells. All values are modal values of three independent experiments.

In series [2] the test system is E. coli ATTC489. As to the kind of experiment: MIC, liquid broth inhibition assay. It is filed as cell-based. The following applies: planktonic E. coli ATTC489; MHB, ~1 × 10^6 CFU mL^−1, ~18 h, OD600; modal values of three independent experiments. The protocol: as §1
Series [3] relates to P. aeruginosa PA14. As to the kind of experiment: MIC, liquid broth inhibition assay. It is filed as cell-based. As to conditions: planktonic P. aeruginosa PA14; MHB, ~1 × 10^6 CFU mL^−1, ~18 h, OD600; modal values of three independent experiments. The protocol: as §1
In series [4] the test system is S. aureus MRSA0017. As to the kind of experiment: MIC, liquid broth inhibition assay. It is filed as cell-based. The following applies: planktonic S. aureus MRSA0017; MHB, ~1 × 10^6 CFU mL^−1, ~18 h, OD600; modal values of three independent experiments. The protocol:
as §1

For series [5], the system named is S. aureus MRSA0017. Nature of the series: Biofilm eradication assay (MBEC), preformed biofilms. As to conditions: TSB + 1% glucose, viable biofilm cell count, three independent experiments. It is filed as cell-based.
Description: (§2) A bacterial suspension of 1 × 10^7 CFU mL^−1 was used to establish biofilms prior to treatment with the peptides. Appropriate nutrient media for optimal biofilm formation were used, including TSB supplemented with 1% glucose for MRSA SAP0017, BM2 glucose for P. aeruginosa PA14, and LB media supplemented with 1% glucose for E. coli ATTC489 and A. baumannii 5015. In the crystal violet-based assay, untreated bacterial culture and sterile media were used as positive and negative controls, where the % of biofilm biomass was considered 100 and 0%, respectively. The % of biomass in the treated samples was determined relative to the positive and negative controls. A biofilm eradication assay [17] was also performed, for which the residual viable biofilm cell count (CFU mL^−1) was determined. Experiments were conducted in triplicate, in three independent experiments, and average values were presented with ± standard deviations.
The test system of series [6] is P. aeruginosa PA14. The series is described as above. It is filed as cell-based. The following applies: BM2 glucose, viable biofilm cell count, three independent experiments.
Description: as §2
The test system of series [7] is E. coli ATTC489. The series is described as above. The following applies: LB + 1% glucose, viable biofilm cell count, three independent experiments. The class given is cell-based.
Description: as §2
Series [8] relates to A. baumannii 5015. The description is as above. The class given is cell-based. The following applies: preformed A. baumannii 5015 biofilm, LB + 1% glucose; viable biofilm cell count; three independent experiments.
Description: as §2
Series [9] relates to MRSA SAP0017, P. aeruginosa PA14, E. coli ATTC489, A. baumannii 5015. As to the kind of experiment: MIC, summary over the strains tested. The class given is cell-based. The following applies: range over the four strains of Table 2. How it is done:
as §1

Series [10] has as its system S. aureus MRSA0017. Nature of the series: Biofilm biomass, crystal violet staining assay. The class given is cell-based. As to conditions: at 64 µg mL^−1, relative to untreated samples.
Description: as §2
Series [11] can be described thus: Aggregation assay (turbidity) in sodium citrate or phosphate. The class given is physicochemical. As to conditions: sodium citrate and sodium phosphate, 0.1−1000 mM; OD600 relative to sterile water. The protocol:
Solutions of IDR1018 peptide and the conjugates were tested for aggregation in saline (0.9% NaCl), 5% dextrose, and 10% RPMI tissue culture medium at 1 mg mL^−1. The solutions were placed in 96 well plates and sterile water was used as a negative control. The turbidity was determined for each sample as described in earlier reports. Similarly, the conjugates were screened for aggregation in the presence of sodium salts of polyatomic anions (citrate or phosphate) at various strengths (0.1−1000 mM). The % of aggregates was assessed relative to the OD600 of sterile water.

Series [12] in a line: Aggregation with PBMCs in tissue culture, microscopy. The class given is physicochemical, human. The following applies: 32 μg mL^−1, PBMCs in RPMI, 4 h, 37 °C, 5% CO2, microscopy; triplicate in three independent experiments. The protocol:
Furthermore, isolated peripheral blood mononuclear cells (PBMCs) seeded in 96-well flat-bottom tissue culture plates (Corning Inc., Corning, NY, USA) at a concentration of 2 × 10^6 in RMPI media were treated with the two conjugates at a final concentration of 32 μg mL^−1, incubated for 4 h at 37 °C in 5% CO2, and visualized on a Nikon Eclipse TS100 microscope. Experiments were performed in triplicate in three independent experiments.

A further series has as its system MCP-1. As to the kind of experiment: Immunomodulatory assay, ELISA of PBMC supernatant. It is filed as cell-based, human. The following applies: PBMCs, peptide 8 μg mL^−1 co-treated with 20 ng mL^−1 P. aeruginosa LPS, 24 h. For orientation: In an ELISA, binding on a coated surface is turned into a signal by an enzyme label.
For the next series, the system named is IL-1RA. As to the kind of experiment: Immunomodulatory assay, ELISA of PBMC supernatant. The class given is cell-based, human. As to conditions: PBMCs.
The next series relates to IL-1β. Nature of the series: Immunomodulatory assay, ELISA of PBMC supernatant. The class given is cell-based, human. The following applies: PBMCs, peptide 8 μg mL^−1 co-treated with 20 ng mL^−1 P. aeruginosa LPS, 24 h.
In the next series the test system is IL-10. Nature of the series: Immunomodulatory assay, ELISA of PBMC supernatant. The class given is cell-based, human. As to conditions: PBMCs, peptide 8 μg mL^−1 co-treated with 20 ng mL^−1 P. aeruginosa LPS, 24 h.
A further series has as its system human PBMCs. Nature of the series: Immunomodulatory assay, chemokine and cytokine expression overall. It is filed as cell-based.
For series [13] the following is noted: at 128 µg mL^−1; LDH release, 24 h, 37 °C, RPMI + 10% FBS; 1% Triton X-100 = 100%. A general note: LDH leaks from cells whose membrane has failed.
Protocol: The cytotoxicity of the conjugates was assessed in vitro against PBMCs as described earlier using the lactate dehydrogenase (LDH)-based assay [35]. Blood samples were collected from healthy donors with ethics approval and PBMCs were isolated following our previously reported protocol [35]. The cells were resuspended in RPMI medium supplemented with 10% FBS and seeded in tissue culture-treated plates at a final density of 1 × 10^5 cells well^−1. Subsequently, the cells were treated with the conjugates or IDR1018 and incubated for 24 h at 37 °C in 5% CO2, to determine the LDH release. Triton X-100 (1% final concentration) was used as a toxic (positive) control.

Protocol for IL-10: (§3) To evaluate the capacity of the conjugates to modulate the immune system, suspended PBMCs (a final density of 1 × 10^5 cells well^−1) were treated with the conjugates at 8 μg mL^−1 in the presence or absence of 20 ng mL^−1 P. aeruginosa LPS, incubated for 24 h, centrifuged, and then the supernatants were collected to quantifying the levels of monocyte chemoattractant protein 1 (MCP-1), the tumor necrosis factor-alpha (TNFα), and interleukins (IL) IL-1β, IL-10, and the anti-inflammatory IL-1 receptor antagonist (IL-1RA) using specific ELISA assays (ELISA kits, eBioscience, Carlsbad, CA, USA). All experiments were conducted in triplicate in three independent experiments and average values were presented.
Protocol for IL-1RA: as §3
Protocol for IL-1β: as §3
Protocol for MCP-1: as §3
Protocol for human PBMCs: as §3

One may read the MIC as the smallest concentration in the dilution series that meets the test's criterion for growth inhibition. High values mean a less susceptible organism, low ones a more susceptible organism. On to `CC[C@H](C)[C@H](NC(=O)[C@H](CCCNC(=N)N)NC(=O)[C@@H](NC(=O)[C@H](C)NC(=O)[C@@H](NC(=O)[C@@H](NC(=O)[C@H](CC(C)C)NC(=O)[C@H](CCCNC(=N)N)NC(=O)[C@@H](NC(=O)[C@@H](N)[C@@H](C)OC1O[C@H](CO)[C@@H](O)[C@H](O)[C@H]1NC(C)=O)C(C)C)[C@@H](C)CC)C(C)C)C(C)C)C(=O)N[C@@H](Cc1c[nH]c2ccccc12)C(=O)N[C@@H](CCCNC(=N)N)C(=O)N[C@@H](CCCNC(=N)N)C(N)=O` (stereo partly drawn) [Glc-IDR1018] (H-T(X1)VRLIVAVRIWRR-NH2), for which the MIC was determined as 64 µg/mL (≈ 34.8 µM) with A. baumannii 5015 [1], 64 µg/mL (≈ 34.8 µM) against E. coli ATTC489 [2], 128 µg/mL (≈ 69.6 µM) in the series with P. aeruginosa PA14 [3] and 64 µg/mL (≈ 34.8 µM) in the series with S. aureus MRSA0017 [4]. Besides, the “MBEC (minimal biofilm eradication concentration)” value (“MBEC” below) in the series with S. aureus MRSA0017 [5] is 64 µg/mL; with P. aeruginosa PA14 [6] it was 256 µg/mL; in the series on E. coli ATTC489 [7] it was 128 µg/mL; with A. baumannii 5015 [8], 256 µg/mL. Moreover, in series [9], the “MICs, range based on the strains tested” value was in the range of 64 to 128 µg/mL. The same compound gave a biomass reduction in the series on S. aureus MRSA0017 [10] not below 90%. The “turbidity in sodium salts of polyatomic anions” value in series [11] is on record as “no turbidity increase”. For the same compound, the “aggregation when incubated with PBMCs in tissue culture” value in [12] was “neither peptide conjugate, PEG6-IDR1018, and Glc-IDR1018 showed any obvious sign of aggregation”. Further, in the series on MCP-1, the “MCP1 induction level with LPS stimulation” value is “substantially higher expression values”. Besides, the “level of IL-1RA induced” value in the series on IL-1RA (peptide 8 μg mL^−1, 24 h, absence of LPS, mean of three independent experiments) worked out at 0.8 ng/mL. In the series with IL-1RA (peptide 8 μg mL^−1 co-treated with 20 ng mL^−1 P. aeruginosa LPS, 24 h), the “IL-1RA induction level with LPS stimulation” value is “substantially higher expression values”. In addition, in the series with IL-1β, the “expression of IL-1β with LPS stimulation” value is listed as “significantly suppressed”. In the series with IL-10, the “IL-10 induction level with LPS stimulation” value is recorded as “substantially higher expression values”. Further, in the series with human PBMCs (peptide 8 μg mL^−1, absence of LPS), the “boost of the level of MCP1 and IL-1RA relative to unmodified IDR1018” value is recorded as 2–5 fold. Besides, the “ability to modulate chemokine and cytokine expression” value in the series with human PBMCs (peptide 8 μg mL^−1, absence of an LPS stimulant) is “significant increase in the expression of the immune mediators relative to unmodified IDR1018”.
Take `CC[C@H](C)[C@H](NC(=O)[C@H](CCCNC(=N)N)NC(=O)[C@@H](NC(=O)[C@H](C)NC(=O)[C@@H](NC(=O)[C@@H](NC(=O)[C@H](CC(C)C)NC(=O)[C@H](CCCNC(=N)N)NC(=O)[C@@H](NC(=O)CCOCCOCCOCCOCCOCCOCCO)C(C)C)[C@@H](C)CC)C(C)C)C(C)C)C(=O)N[C@@H](Cc1c[nH]c2ccccc12)C(=O)N[C@@H](CCCNC(=N)N)C(=O)N[C@@H](CCCNC(=N)N)C(N)=O` [PEG6-IDR1018] (X2-VRLIVAVRIWRR-NH2): the minimum inhibitory concentration (MIC) was determined as 64 µg/mL (≈ 34.2 µM) against A. baumannii 5015 [1], 64 µg/mL (≈ 34.2 µM) in the series with E. coli ATTC489 [2], 64 µg/mL (≈ 34.2 µM) with P. aeruginosa PA14 [3] and 32 µg/mL (≈ 17.1 µM) against S. aureus MRSA0017 [4]. Besides, the “MBEC” value with S. aureus MRSA0017 [5] worked out at 64 µg/mL; in the series on P. aeruginosa PA14 [6], 256 µg/mL; with E. coli ATTC489 [7], 128 µg/mL; with A. baumannii 5015 [8], 128 µg/mL. The “MICs, range based on the strains tested” value in [9] was 32 to 64 µg/mL.
Turning to VRLIVAVRIWRR-NH2 [IDR1018], the minimum inhibitory concentration (MIC) against A. baumannii 5015 [1], against E. coli ATTC489 [2], in the series on P. aeruginosa PA14 [3] and with S. aureus MRSA0017 [4] was 16 µg/mL in each case. Also, the “MBEC” value in the series on P. aeruginosa PA14 [6], in the series on E. coli ATTC489 [7] and in the series with A. baumannii 5015 [8] was 16 µg/mL throughout. In series [13], the “cytotoxicity to PBMCs” value is “up to 20%”.
